Experimental data from patent US20140024548A1, “DRUG SELECTION FOR MALIGNANT CANCER THERAPY USING ANTIBODY-BASED ARRAYS” (NESTEC S.A., priority 2010, published 2014).

Columns and labels:
[1] = in vivo; cited from earlier work
[2] = test system: CYP450; conditions: cited from earlier work
[3] = early Phase I evaluation; cited from earlier work
[4] = test system: human xenograft models; conditions: dosed orally; cited from earlier work
[5] = target: T1, cMET (Homo sapiens, UniProt P08581); assay: CEER detection of activated cMET in HCC827 cells treated with HGF; format: cell-based; conditions: HGF stimulation, FIG. 10B
T1 construct: host or cells: HCC827
T1 sequence (P08581 25-1390): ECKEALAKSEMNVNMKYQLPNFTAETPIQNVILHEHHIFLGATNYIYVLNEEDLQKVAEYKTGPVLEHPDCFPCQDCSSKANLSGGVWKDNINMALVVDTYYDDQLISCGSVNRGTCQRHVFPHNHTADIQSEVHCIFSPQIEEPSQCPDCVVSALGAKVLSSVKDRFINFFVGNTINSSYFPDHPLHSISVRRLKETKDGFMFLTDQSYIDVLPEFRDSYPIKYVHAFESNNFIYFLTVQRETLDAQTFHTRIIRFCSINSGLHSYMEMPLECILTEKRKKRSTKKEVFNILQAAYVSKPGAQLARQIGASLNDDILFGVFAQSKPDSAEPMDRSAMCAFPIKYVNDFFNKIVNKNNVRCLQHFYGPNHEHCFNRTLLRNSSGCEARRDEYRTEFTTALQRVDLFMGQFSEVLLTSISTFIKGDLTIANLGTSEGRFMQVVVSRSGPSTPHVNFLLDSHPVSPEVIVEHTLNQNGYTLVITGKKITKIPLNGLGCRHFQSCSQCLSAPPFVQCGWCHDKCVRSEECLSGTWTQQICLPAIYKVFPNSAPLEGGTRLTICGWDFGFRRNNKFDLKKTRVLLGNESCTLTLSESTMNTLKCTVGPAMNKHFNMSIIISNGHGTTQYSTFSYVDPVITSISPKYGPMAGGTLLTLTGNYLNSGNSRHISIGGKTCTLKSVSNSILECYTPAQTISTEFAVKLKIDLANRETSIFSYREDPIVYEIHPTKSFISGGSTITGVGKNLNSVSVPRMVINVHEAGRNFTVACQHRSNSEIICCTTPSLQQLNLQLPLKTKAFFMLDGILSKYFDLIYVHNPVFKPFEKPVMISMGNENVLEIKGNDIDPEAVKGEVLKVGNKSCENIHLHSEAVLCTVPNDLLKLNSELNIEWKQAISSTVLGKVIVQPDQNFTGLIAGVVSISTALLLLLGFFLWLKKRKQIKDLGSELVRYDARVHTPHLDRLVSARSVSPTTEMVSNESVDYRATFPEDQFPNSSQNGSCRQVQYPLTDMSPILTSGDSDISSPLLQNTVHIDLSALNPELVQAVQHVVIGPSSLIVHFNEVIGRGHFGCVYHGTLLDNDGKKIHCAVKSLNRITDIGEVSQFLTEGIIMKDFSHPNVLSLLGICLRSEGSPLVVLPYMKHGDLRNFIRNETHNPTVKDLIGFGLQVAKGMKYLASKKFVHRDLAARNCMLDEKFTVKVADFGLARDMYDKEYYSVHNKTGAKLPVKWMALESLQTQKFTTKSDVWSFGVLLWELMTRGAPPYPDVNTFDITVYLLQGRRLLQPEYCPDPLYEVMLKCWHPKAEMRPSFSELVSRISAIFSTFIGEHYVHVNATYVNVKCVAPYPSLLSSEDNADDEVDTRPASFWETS
Description: (§1) In one particular embodiment, cells from a NSCLC cell line (e.g., HCC827 cells or other gefitinib sensitive lung adenocarcinoma cells with EGFR-activating mutations; American Type Culture Collection, Manassas, Va.) were treated with different concentrations of ligand or signaling molecule (e.g., the ligand for the cMET receptor, HGF). The levels of expression and activation of proteins associated with cancer were measured in the treated cells with high sensitivity using CEER arrays. By varying the amount of ligand exposed to the cancer cells, the expression profiles of the analyzed proteins were correlated to the amount of ligand used to stimulate the cells. Dose response curves were used to calculate EC50 values which can be used to interpret the inhibition and activation states of the analyzed proteins.
(§2) FIG. 10 illustrates the difference in protein expression in HCC827 cells following HGF stimulation. […] FIG. 10E illustrates that HGF and cMET binding interferes with HER3 activation, and HER1 and HER2 to a lesser extent (see also, FIGS. 10C and 10D).

[6] = test system: HER1; assay: CEER detection of activated HER1 in HCC827 cells treated with HGF; format: cell-based; conditions: HGF stimulation, judged by increased EC50
Description: as §1, §2

[7] = test system: HER3; assay: CEER detection of activated HER3 in HCC827 cells treated with HGF; format: cell-based; conditions: HGF stimulation, judged by increased EC50
Description: as §1, §2

[8] = test system: HER2; assay: CEER detection of activated HER2 in HCC827 cells treated with HGF; format: cell-based; conditions: HGF stimulation, judged by increased EC50
Description: as §1, §2

For COc1cc2c(Oc3ccc(NC(=O)C4(C(=O)Nc5ccc(F)cc5)CC4)cc3F)ccnc2cc1OCCCN1CCOCC1 [GSK 1363089/XL880], the oral bioavailability [1] is given as “good oral bioavailability” and the “CYP450 substrate / inhibitor / inducer status” value [2] is given as “substrate, but not an inhibitor or inducer”.
For CN(C[C@@H]1COCCO1)S(=O)(=O)Nc1ccc2ccc3ncc(-c4cnn(C)c4)cc3c(=O)c2c1 [MK-2461], the tolerability [3] is given as “well tolerated”.
For Cn1cc(-c2ccc3nnc(Sc4ccc5ncccc5c4)n3n2)cn1 [SGX523], the antitumor activity [4] is given as “potent antitumor activity” and the toxicity [4] is given as “no overt toxicity”.
In the case of “HGF: hepatocyte growth factor, the ligand for the cMET receptor”, the cMET activation [5] is reported as “activated cMET effectively”, the HER1 activation [6] is reported as “decreased” and the HER3 activation [7] is reported as “decreased”. For the same compound, the HER2 activation [8] was “decreased”.
